According to patent EP0491828B1, “PEPTIDES FROM GTPase-ACTIVATING PROTEIN (GAP), DIAGNOSTIC AND THERAPEUTIC USE THEREOF” (CHIRON CORPORATION, priority 1989, dated 1999):

Tests used:
ras p21 protein [1] = test: Filter assay of GTP hydrolysis by ras p21 protein (32-P gamma-GTP), with and without GAP; format: biochemical; conditions: in the presence and absence of GAP; 30 minutes at room temperature
Procedure: The above four peptides, in the following two experiments, were tested for their abilities to inhibit the hydrolysis of GTP by ras p21 protein, in the presence and absence of GAP. The first experiment involved peptides G65, G73 and 891. It was carried out as follows: purified wild type ras p21 protein was incubated with 0.25 µM 32-P gamma-GTP in 100 mM NaPO4, pH 6.8, 0.5 mM DTT, 0.5 mM EDTA, 0.005% Na cholate, and 0.5 mg/ml BSA for 15 minutes at 30°C. The mixture was then diluted ten fold with TNM buffer (comprising 20 mM Tris-HCl, pH 7.0, 100 mM NaCl, 5 mM MgCl2). 20 µl (0.05 µg of p21) of this mixture was then combined with 2 µl of the peptide in 25 mM NaOAc, pH 5.5 and incubated for 5 minutes at room temperature. The GAP assay, was initiated by the addition of 12 ng GAP in 5 µl TNM buffer with 1 mg/ml BSA or 5 µl TNM BSA buffer for the GAP independent reactions, and the resulting mixture was incubated for 30 minutes at room temperature. The samples were then filtered through nitrocellulose membranes and washed three times with cold TNM. The filters were dried and their radioactivity counted. […] In the presence of GAP, the radioactive ras p21-GTP complex is hydrolyzed to GDP and ras p21 protein, thus reducing the resulting amount of radioactive p21-GTP bound to the filter and consequently, the radioactive counts detected. […]

ras p21 protein [2] = test: GDP/GTP ratio assay of p21-GTP hydrolysis (alpha-32-P-GTP, PEI cellulose chromatography), with and without GAP; format: biochemical; conditions: in the presence of GAP; control peptide, no concentration stated
Procedure: Another experiment comparing the efficacy of cGAP 13 and peptide 891 in preventing the hydrolysis of GTP was carried out as follows. The assay measured the ratio of GDP formed resulting from the hydrolysis of GTP to the remaining GTP in the assay solution. Peptides 891, cGAP 13, and G65 were separately tested in the presence and absence of GAP, Peptide G65, which served as a control, and α-32-P-GTP were used.
The assay was carried out as follows. The p21-GTP was diluted at a ratio of 1 to 10 in an assay buffer consisting of TNM at pH 7.0, 1mM DTT, and 100 µM GTP. A mixture consisting of 20 λ of p21 at 0.25 µM, and 2 λ of the peptide (in TNM, 1mM DTT and 100 µM GTP) was prepared. To this mixture was added 5 λ, i.e. 12ng of GAP diluted in TNM and 1 mg/ml BSA; for experiments without GAP, 5λ TNM/BSA were added instead. The resulting mixture was incubated for 30 minutes at room temperature. The reaction was stopped and the nucleotides were eluted from ras p21 protein with 2% SDS, 40 mM EDTA at 65°C for 5 minutes. The nucleotides were chromatographed on PEI Cellulose in 1M LiCl. GTP and GDP spots were visualized with autoradiography and identified by means of standard solutions. The individual spots from the PEI cellulose plates were scraped and the radioactivity counted.

Substance | hydrolysis of GTP by ras p21 protein (radioactive counts per minute of ras p21-GTP complex on filter) (ras p21 protein [1]) | hydrolysis of p21-GTP (ratio of radioactive counts of GDP over GTP) (ras p21 protein [2])
peptide G73: synthetic peptide corresponding to positions 975-990 of the full length GAP (GNVPELPDTTEHSRTD; UniProt P20936 975-990, looked up, fragment) | do not affect the hydrolysis of GTP | 
peptide G65: synthetic peptide corresponding to positions 876-890 of the full length GAP; served as a control (CLQKSVQHKWPTNTT; UniProt P20936 876-890, looked up, fragment) | do not affect the hydrolysis of GTP | exhibits no inhibitory effect on p21-GTP hydrolysis
